Results taken from patent US4954637A, “Certain maleimide-N-alkylenecarboxylate-ortho-nitrobenzenesulfonic acid esters and derivatives useful for coupling biological materials” (Cetus Corporation, priority 1987, dated 1990).
Read-outs that look alike come from different tables or passages of the source.

Tests used:
cells = settings: vs biotin-p-nitrophenyl ester; fluoresceinated avidin; cited from earlier work
polylysine = settings: over a 5 minute period; pH 7.4, room temperature
Description: A total of 25 mg (0.34 μmoles) of polylysine obtained from Sigma Chemical Co. (Sigma) was succinylated to approximately 20 amines remaining unsuccinylated per polylysine molecule, and redissolved in 0.5 ml of 0.1M phosphate buffer at pH 7.4 to yield an amine concentration of 1.0×10^-2 M. Five mg (1.0×10^-5 moles) of the biotin HNSA ester was dissolved in 0.5 ml of the polylysine solution. The mixture was stirred at room temperature to initiate reaction. Ten μl aliquots were removed from the incubating solution at timed intervals and were each diluted into 1.0 ml of 0.01M phosphate buffer at pH 7.0. The spectrum of each diluted aliquot was measured and the absorbance at 406 nm recorded.

bovine serum albumin = settings: pH 8.5; vs same ester of N-hydroxysuccinimide; cited from earlier work
[1] = Stability in water and on storage; type: physicochemical; settings: no nucleophiles added
[2] = tested on: bovine serum albumin (BSA); settings: for Concentration of Ester: diluted aliquot
Description: A total of 22 mg ([…]) of BSA (of molecular weight 66,296) was dissolved in 2.0 ml of 0.01M phoshate buffer at pH 7.5 to yield a total amino concentration of 1.0×10^-2 moles per liter (assuming 59 lysines/BSA molecule). A calculated amount mg. […] The reaction was carried out at room temperature. […]
It was found at 15 minutes of reaction time that 2.6×10^-3 moles/1 of the ester had reacted and thus 25.9% of the 59 ε-amino groups of BSA were presumably substituted. Thus, the product contained 16 mal-sac groups per molecule.

[3] = tested on: Horseradish peroxidase (HRP); settings: over a 30 minute period; pH 7.0, room temperature
biotinylated polylysine = experiment: Coupling of mal-sac-HNSA to biotinylated polylysine, then to HRP-SH; settings: over a 30 minute period; pH 7.4, room temperature
Description: Biotinylated Polylysine (0.6 ml; 73,000 D average mol. wt.) was adjusted to pH 7.4 with 0.015 ml of 2.5N NaOH. Approximately 5 mg of mal-sac-HNSA was added to the biotinylated polylysine and stirred at room temperature. Ten μl aliquots were removed from the mixture at timed intervals and diluted into 1.0 ml of 0.01M phosphate buffer at pH 7.0. The spectrum of each diluted aliquot was measured and the absorbance at 406 nm recorded. A total of 50 μl of 4.8N NaOH solution was then added to each aliquot, mixed, and the spectrum retaken.
After 30 minutes of incubation time, the reaction was stopped using a Sephadex G-25 column, and the high molecular weight (biotin)4-polylysine-(sac-mal)18 was well separated from excess HNSA and unreacted mal-sac-HNSA.

streptavidin = tested on: streptavidin; set-up: species or system Streptomyces avidinii; settings: over the period measured; pH 7.4, room temperature
Description: A total of 0.26 mg (4.3×10^-3 μmoles) of streptavidin purified from Streptomyces avidinii by the method of Hoffman et al., PNAS. 77, 4666-4668 (1980) was dissolved in 1.0 ml of phosphate buffered saline at pH 7.4 to yield a total amine concentration of 6.93×10^-5 M (16NH2 /streptavidin). […] Good separation was achieved between the protein and the excess HNSA and unreacted HNSA ester. […] In this case 79% of the amino groups on streptavidin (12.9 out of 16.0) reacted.

[4] = type: physicochemical; settings: 50 μl of 4.8N NaOH added to aliquot in 1 ml pH 7.0 buffer
Description: About 0.5 mg of the purified mal-sac HNSA ester from Example IA was dissolved in 1 ml of distilled water.
The difference between the post-base and initial free HNSA concentration represents the concentration of ester. From the actual concentration of ester the amount of ester to be added to the protein solution to achieve the desired degree of substitution can be calculated.

Solubility in water = type: physicochemical
[5] = tested on: sheep red blood cells (SRBC); experiment: Labelling of sheep red blood cells, Coulter EPICS V Cytofluorometer; type: cell-based; settings: excitation at 360 nm
Description: Dansyl-sac-HNSA ester was prepared as described in Example 1A using molar equivalents of HNSA, dicyclohexylcarbodiimide and dansyl-ε-aminocaproic acid (from Sigma Chemicals). For use in coupling to sheep red blood cells (SRBC) the dansyl-sac-HNSA ester (50 mg) was prepared in 7 ml of 0.28M cacodylate buffer, pH 6.9.
Sheep red blood cells were washed 4 times (400×g. 8 minutes) in G-PBS buffer (5% α-D-glucose w/v in PBSCa-Mg). To 1 ml of packed red blood cells was added the 7 ml of dansyl-sac-HNSA ester dropwise with gentle mixing for 10 minutes at room temperature. The reaction was done in foil-wrapped glassware to protect against photodecomposition. Following the reaction the cells were washed in cold G-PBS buffer containing 1% heat inactivated (56° C., 30 minutes) FCS (fetal calf serum) until the supernatants were colorless (a minimum of 4 washes).
The dansyl-sac-HNSA labelled SRBC were monitored using a Coulter EPICS V Cytofluorometer immediately after labeling and at 24 hours. […] This translates to an increase in intensity 720 times over unlabeled cells.

## O=C1N[C@H]2[C@H](CS[C@H]2CCCCC(=O)Oc2ccc(S(=O)(=O)O)cc2[N+](=O)[O-])N1 [Biotin-HNSA Ester]
cells
  increase in fluorescence: much larger increase in fluorescence
polylysine
  reaction rate: essentially linear

## O=C(CCCCCNc1ccc([N+](=O)[O-])cc1[N+](=O)[O-])Oc1ccc(S(=O)(=O)O)cc1[N+](=O)[O-] [N-2,4-dinitrophenyl-6-aminocaproic acid ester of HNSA]
Bovine serum albumin
  conjugation efficiency: more efficient than the same ester of N-hydroxysuccinimide

## O=C(CCCCCN1C(=O)C=CC1=O)Oc1ccc(S(=O)(=O)O)cc1[N+](=O)[O-] [mal-sac-HNSA, N-maleimido-6-aminocaproylHNSA]
[1]
  stability in water: stable in water for several hours
[2]; 0 minutes
  Concentration of Ester: 1.56 × 10^-4 moles/1
[2]; 5 minutes
  Concentration of Ester: 1.16 × 10^-4 moles/1
[2]; 9 minutes
  Concentration of Ester: 1.03 × 10^-4 moles/1
[2]; 14 minutes
  Concentration of Ester: 1.11 × 10^-4 moles/1
[2]; 15 minutes of reaction time
  ester reacted: 2.6×10^-3 moles/1
avidin; 10 minutes, room temperature
  Percent Ester Remaining: 81%
avidin; 30 minutes, FIG. 3
  reaction rate: linear
[3]
  reaction rate: essentially linear
Biotinylated polylysine
  reaction rate: essentially linear
streptavidin
  reaction rate: essentially linear
[4]
  hydrolysis by hydroxide: rapidly hydrolyzed
Solubility in water
  solubility in water: dissolve fully in water

## CN(C)c1cccc2c(S(=O)(=O)NCCCCCC(=O)Oc3ccc(S(=O)(=O)O)cc3[N+](=O)[O-])cccc12 [dansyl-sac-HNSA]
[5]
  increase in fluorescence intensity over unlabeled cells: 720 times
